From patent publication US9518008B2, “(1S,2S,3S,4R)-3-[(1S)-1-acetylamino-2-ethyl-butyl]-4-uanidino-2-hydroxyl-cyclopentyl-1-carboxylic acid hydrates pharmaceutical uses thereof” (Institute of Pharmacology and Toxicology Academy of …, priority 2007, dated 2016)

Test: Determination of hygroscopicity (high humidity test)
Format: physicochemical
Method: The hygroscopicity of the compound of the invention can be tested by a standard hygroscopicity test method. For example, the compound is stored in a sealed vessel at room temperature at a relative humidity of 92.5%, 80% or 75%, and the change in moisture content of the compound is tested by sampling at regular intervals.
At the 5th and 10th days, the products were sampled and determined in aspect of important items relating to stability investigation. […] If the weight gain of a product due to moisture absorption was more than 5%, the product was further experimented according to the same method under a relative humidity of 75%±5%. If the weight gain of a product due to moisture absorption was less than 5%, and other items thereof under investigation met the relevant requirements, no more experiment was needed. The humidity-constant condition could be achieved by placing a saturated saline solution at the lower part of a sealed vessel, e.g., a desiccator, and a NaCl saturated solution (15.5-60° C., a relative humidity of 75%±1%) or a KNO3 saturated solution (25° C., a relative humidity of 92.5%) may be selected according to the requirement of different relative humidity.

[1] = Relative humidity 92.5%, 25° C.

SMILES	Hygroscopicity at the 5th day (Relative humidity 75%) [%]	Hygroscopicity at the 10th day (Relative humidity 75%) [%]	Hygroscopicity at the 5th day [1] [%]	Hygroscopicity at the 10th day [1] [%]
CCC(CC)[C@H](NC(C)=O)[C@H]1[C@H](O)[C@@H](C(=O)O)C[C@H]1NC(=N)N.O.O.O.O.O.O [Hexahydrate, (1S,2S,3S,4R)-3-[(1S)-1-acetylamino-2-ethyl-butyl]-4-guanidino-2-hydroxy-cyclopentyl-1-carboxylic acid hexahydrate]	3.86	6.33	4.37	9.96
CCC(CC)[C@H](NC(C)=O)[C@H]1[C@H](O)[C@@H](C(=O)O)C[C@H]1NC(=N)N.O [Monohydrate, (1S,2S,3S,4R)-3-[(1S)-1-acetylamino-2-ethyl-butyl]-4-guanidino-2-hydroxy-cyclopentyl-1-carboxylic acid monohydrate]	2.41	2.77	2.83	3.35
CCC(CC)[C@H](NC(C)=O)[C@H]1[C@H](O)[C@@H](C(=O)O)C[C@H]1NC(=N)N.CCC(CC)[C@H](NC(C)=O)[C@H]1[C@H](O)[C@@H](C(=O)O)C[C@H]1NC(=N)N.O.O.O [Sesquihydrate, (1S,2S,3S,4R)-3-[(1S)-1-acetylamino-2-ethyl-butyl]-4-guanidino-2-hydroxy-cyclopentyl-1-carboxylic acid sesquihydrate]	4.01	6.89	4.48	7.33
